# Where a SMILES comes first, the peptide text is derived from it. [ ]: non-standard residue; d: D form. The star is where a group is joined. Dolaproine = CO[C@@H]([C@@H]1CCCN1)[C@@H](C)C(=O)O; Dil = CC[C@H](C)[C@H](NC)[C@@H](CC(=O)O)OC; NMe2Val = CC(C)[C@@H](C(=O)*)N(C)C; dPhe(ol) = N[C@@H](CO)Cc1ccccc1; Phe(ol) = N[C@H](CO)Cc1ccccc1
# How the values were obtained:
# [1] = test system: 3396 human breast carcinoma cells; experiment: In vitro cytotoxicity, XTT, 3396 cells; type: cell-based; conditions: 3396 breast, exposed 1 hr, washed, XTT 96 hr later
# Method: (§1) In vitro cytotoxicity experiments were performed to compare the activities of auristatin E (29a) and drugs of this invention. 3396 and Karpas cells were exposed to the drug for 1 and 2 hr respectively. The cells were washed, and cytotoxicity was determined 96 hr later using XTT to measure mitochondrial integrity.
# L428 Hodgkin's lymphoma = experiment: In vitro cytotoxicity, 3H-thymidine incorporation, L428 cells; type: cell-based; conditions: 3H-thymidine incorporation 72 hours later
# Method: (§2) To obtain the results shown in Table 4, the cells were exposed to drugs for 1-2 hours, and the cytotoxic effects were determined 72 hours later by the incorporation of ^3H-thymidine into DNA. Antigen expression was determined by flow cytometry and is expressed in terms of mean fluorescence intensity (MFI).
# (§3) These figures show the cytotoxic effects of auristatin E and auristatin E-containing conjugates on L2987 human lung adenocarcinoma cells (FIG. 19A); and various hematologic cell lines treated with AC10-S-40a (FIG. 19B). In all assays, cells were exposed to the drugs for 2 hours, washed, and the cytotoxic activities were measured 72 hours later using ^3H-thymidine incorporation.
# IM-9 (Multiple myeloma) = experiment: In vitro cytotoxicity, 3H-thymidine incorporation, IM-9 cells; type: cell-based; conditions: exposed 1-2 hours, 3H-thymidine incorporation 72 hours later
# Method: as §2, §3
# L540 Hodgkin's lymphoma = experiment: In vitro cytotoxicity, 3H-thymidine incorporation, L540 cells; type: cell-based; conditions: 3H-thymidine incorporation 72 hours later
# Method: as §2, §3
# [2] = test system: Daudi Burkitt's lymphoma cells; experiment: In vitro cytotoxicity, 3H-thymidine incorporation, Daudi cells; type: cell-based; conditions: for IC50: Daudi Burkitt's lymphoma, exposed 1-2 hours, 3H-thymidine incorporation 72 hours later
# Method: as §2, §3
# [3] = test system: L2987 human lung adenocarcinoma cells; experiment: In vitro cytotoxicity, 3H-thymidine incorporation, L2987 cells; type: cell-based; conditions: for IC50: L2987 lung, exposed 1-2 hours, 3H-thymidine incorporation 72 hours later
# Method: as §2
# (§4) The cytotoxic effects of the mAb-S-36 conjugates on L2987 human lung adenocarcinoma cells (strongly BR96 antigen positive, weakly S2C6 antigen positive) and on Kato III human gastric carcinoma cells, (strongly BR96 antigen positive, S2C6 antigen negative) are shown in FIGS. 18A, 18B and 18C. These figures show the in vitro cytotoxicity of drugs and mAb-drug conjugates on (FIG. 18A) and (FIG. 18B) L2987 human lung adenoma cells, and (FIG. 18A) and (FIG. 18C) Kato III human gastric carcinoma cells. L2987 cells are positive for the antigens recognized by BR96 (LeY) and S2C6 (CD40), but express the LeY antigen at higher levels. Kato III cells are positive for the LeY antigen and negative for CD40. Cells were exposed to the conjugates for 2 hours, washed, and the cytotoxic effects were determined 3 days later using a thymidine incorporation assay.
# as §3
# AU565 (breast) = experiment: In vitro cytotoxicity, 3H-thymidine incorporation, AU565 cells; type: cell-based; conditions: exposed 1-2 hours, 3H-thymidine incorporation 72 hours later
# Method: as §2
# Karpas 299 (ALCL) = experiment: In vitro cytotoxicity, XTT, Karpas 299 cells; type: cell-based; conditions: exposed 2 hr, washed, XTT 96 hr later
# Method: as §1
# [4] = test system: Karpas anaplastic large cell lymphoma; experiment: In vitro cytotoxicity, 3H-thymidine incorporation, Karpas cells; type: cell-based; conditions: Karpas ALCL; exposed 1-2 hours, 3H-thymidine incorporation 72 hours later
# Method: as §2, §3
# [5] = test system: Kato III human gastric carcinoma cells; experiment: In vitro cytotoxicity, 3H-thymidine incorporation, Kato III cells; type: cell-based; conditions: exposed 1-2 hours, 3H-thymidine incorporation 72 hours later
# Method: as §2, §4
# SKBR3 (breast) = experiment: In vitro cytotoxicity, 3H-thymidine incorporation, SKBR3 cells; type: cell-based; conditions: 3H-thymidine incorporation 72 hours later
# Method: as §2
# [6] = test system: purified esterases from rhesus monkey livers; experiment: Exposure to purified liver esterases (rhesus monkey); type: in vitro ADME; conditions: prolonged exposure
# [7] = test system: purified esterases from rabbit livers; experiment: Exposure to purified liver esterases (rabbit); type: in vitro ADME; conditions: prolonged exposure
# [8] = test system: purified esterases from guinea pig livers; experiment: Exposure to purified liver esterases (guinea pig); type: in vitro ADME; conditions: prolonged exposure
# Stability in human serum = type: in vitro ADME; conditions: 120 hours incubation at 37 C
# [9] = test system: purified esterases from human livers; experiment: Exposure to purified liver esterases (human); type: in vitro ADME; conditions: prolonged exposure
# [10] = Homo sapiens, Breast carcinoma cell
smiles,measurement,setting,value
"CC[C@H](C)[C@@H]([C@@H](CC(=O)N1CCC[C@H]1[C@H](OC)[C@@H](C)C(=O)N[C@H](C)[C@@H](O)c1ccccc1)OC)N(C)C(=O)[C@@H](NC(=O)[C@H](C(C)C)N(C)C)C(C)C [Compound 29a, N,N-dimethyl-L-valyl-N-[(1S,2R)-4-[(2S)-2-[(1R,2R)-3-[[(1R,2S)-2-hydroxy-1-methyl-2-phenylethyl]amino]-1-methoxy-2-methyl-3-oxopropyl]-1-pyrrolidinyl]-2-methoxy-1-[(1S)-1-methylpropyl]-4-oxobutyl]-N-methyl-L-valinamide, reference compound]",IC50,[1]; [10],6 nM
same,IC50,"L428 Hodgkin's lymphoma; Homo sapiens, L-428, exposed 1-2 hours",1.5 nM
same,IC50,IM-9 (Multiple myeloma); Homo sapiens,3.5 nM
same,IC50,"L540 Hodgkin's lymphoma; Homo sapiens, L-540, exposed 1-2 hours",1.5 nM
same,IC50,[2]; Homo sapiens,0.9 nM
same,IC50,[3]; Homo sapiens,1 nM
same,IC50,AU565 (breast); Homo sapiens,1.5 nM
same,IC50,Karpas 299 (ALCL); Homo sapiens,1.2 nM
same,IC50,[4],1.2 nM
same,IC50,[5]; Homo sapiens,0.7 nM
same,IC50,"SKBR3 (breast); Homo sapiens, SK-BR-3, exposed 1-2 hours",1.5 nM
CC[C@H](C)[C@@H]([C@@H](CC(=O)N1CCC[C@H]1[C@H](OC)[C@@H](C)C(=O)N[C@H](CO)Cc1ccccc1)OC)N(C)C(=O)[C@@H](NC(=O)[C@H](C(C)C)N(C)C)C(C)C [Compound 32] (NMe2Val-V[Dil][Dolaproine][Phe(ol)]),IC50,[1]; [10],4.5 nM
CC[C@H](C)[C@@H]([C@@H](CC(=O)N1CCC[C@H]1[C@H](OC)[C@@H](C)C(=O)N[C@@H](CO)Cc1ccccc1)OC)N(C)C(=O)[C@@H](NC(=O)[C@H](C(C)C)N(C)C)C(C)C [Compound 33] (NMe2Val-V[Dil][Dolaproine][dPhe(ol)]),IC50,[1]; [10],70 nM
"CC[C@H](C)[C@@H]([C@@H](CC(=O)N1CCC[C@H]1[C@H](OC)[C@@H](C)C(=O)N[C@@H](C)[C@H](OC(=O)c1ccc(C(C)=O)cc1)c1ccccc1)OC)N(C)C(=O)[C@@H](NC(=O)[C@H](C(C)C)N(C)C)C(C)C [Compound 39a, 4-acetyl-benzoic Ester of Auristatin E]",conversion to auristatin E (29a) by liver esterases,[6],failed to demonstrate any conversion
same,conversion to auristatin E (29a) by liver esterases,[7],failed to demonstrate any conversion
same,IC50,[1],16 nM
same,IC50,L428 Hodgkin's lymphoma; exposed 1-2 hours,13 nM
same,IC50,IM-9 (Multiple myeloma),50 nM
same,conversion to auristatin E (29a) by liver esterases,[8],failed to demonstrate any conversion
same,IC50,L540 Hodgkin's lymphoma; exposed 1-2 hours,16 nM
same,times less cytotoxic than auristatin E (29a),[2]; Daudi Burkitt's lymphoma cells,approximately 17 times
same,IC50,[2],15 nM
same,cytotoxicity relative to auristatin E (29a),[3]; L2981 cells (so in the source),as cytotoxic as auristatin E (29a)
same,IC50,[3],0.9 nM
same,IC50,AU565 (breast),6 nM
same,IC50,Karpas 299 (ALCL),4 nM
same,IC50,[4],13 nM
same,IC50,[5],5 nM
same,hydrolysis in human serum,Stability in human serum,no detectable hydrolysis
same,conversion to auristatin E (29a) by liver esterases,[9],failed to demonstrate any conversion
same,IC50,SKBR3 (breast); exposed 1-2 hours,6 nM
CC[C@H](C)[C@@H]([C@@H](CC(=O)N1CCC[C@H]1[C@H](OC)[C@@H](C)C(=O)N[C@H](COC(=O)c1ccc(C(C)=O)cc1)Cc1ccccc1)OC)N(C)C(=O)[C@@H](NC(=O)[C@H](C(C)C)N(C)C)C(C)C [Compound 47],IC50,[1]; [10],0.35 nM
same,IC50,Karpas 299 (ALCL); Homo sapiens,0.075 nM
CC[C@H](C)[C@@H]([C@@H](CC(=O)N1CCC[C@H]1[C@H](OC)[C@@H](C)C(=O)N[C@@H](COC(=O)c1ccc(C(C)=O)cc1)Cc1ccccc1)OC)N(C)C(=O)[C@@H](NC(=O)[C@H](C(C)C)N(C)C)C(C)C [Compound 49],IC50,[1]; [10],34 nM
"CC[C@H](C)[C@@H]([C@@H](CC(=O)N1CCC[C@H]1[C@H](OC)[C@@H](C)C(=O)N[C@H](C)[C@@H](OC(=O)CCCCC(=O)c1ccccc1)c1ccccc1)OC)N(C)C(=O)[C@@H](NC(=O)[C@H](C(C)C)N(C)C)C(C)C [Compound 50, 5-benzoylvaleric Ester of Auristatin E]",IC50,[1]; [10],3 nM
"CO[C@H]([C@@H](C)C(=O)N[C@H](C)[C@@H](OC(=O)CC(C)=O)c1ccccc1)[C@@H]1CCCN1C(=O)C[C@@H](OC)[C@H](C)N(C)C(=O)[C@@H](NC(=O)[C@H](C(C)C)N(C)C)C(C)C [Compound 52, Acetoacetic Ester of Auristatin E]",IC50,[1]; [10],20 nM
CC[C@H](C)[C@@H]([C@@H](CC(=O)N1CCC[C@H]1[C@H](OC)[C@@H](C)C(=O)N[C@H](COc1ccc(C(C)=O)cc1)Cc1ccccc1)OC)N(C)C(=O)[C@@H](NC(=O)[C@H](C(C)C)N(C)C)C(C)C [Compound 58],IC50,[1]; [10],2.5 nM
